Experimental findings from ChEMBL document CHEMBL3992562, “Multifunctional thioxanthone derivatives with acetylcholinesterase, monoamine oxidases and β-amyloid aggregation inhibitory activities as potential agents against Alzheimer's disease” (Bioorg Med Chem, 2017) are described below.

Bounds are passed on as bounds.

Sequence of Acetylcholinesterase (O42275 whole entry): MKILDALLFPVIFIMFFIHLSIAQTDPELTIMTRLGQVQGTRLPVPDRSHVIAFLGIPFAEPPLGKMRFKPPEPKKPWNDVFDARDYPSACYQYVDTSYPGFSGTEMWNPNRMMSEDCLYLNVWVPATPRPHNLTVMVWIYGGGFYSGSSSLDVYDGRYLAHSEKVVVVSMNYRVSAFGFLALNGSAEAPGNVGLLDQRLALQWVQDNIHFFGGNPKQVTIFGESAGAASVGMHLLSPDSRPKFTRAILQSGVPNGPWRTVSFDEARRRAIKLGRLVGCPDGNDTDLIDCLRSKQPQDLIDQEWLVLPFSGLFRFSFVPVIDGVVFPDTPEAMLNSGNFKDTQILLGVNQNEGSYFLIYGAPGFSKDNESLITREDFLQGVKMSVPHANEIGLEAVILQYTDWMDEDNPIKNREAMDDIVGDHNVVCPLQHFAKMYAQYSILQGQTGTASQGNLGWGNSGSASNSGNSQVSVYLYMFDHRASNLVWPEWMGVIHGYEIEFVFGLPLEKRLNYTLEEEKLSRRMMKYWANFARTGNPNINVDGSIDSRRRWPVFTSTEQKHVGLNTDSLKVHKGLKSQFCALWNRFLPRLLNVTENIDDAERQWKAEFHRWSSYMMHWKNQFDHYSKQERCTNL
Sequence of Amyloid-beta precursor protein (Homo sapiens) (P05067 whole entry): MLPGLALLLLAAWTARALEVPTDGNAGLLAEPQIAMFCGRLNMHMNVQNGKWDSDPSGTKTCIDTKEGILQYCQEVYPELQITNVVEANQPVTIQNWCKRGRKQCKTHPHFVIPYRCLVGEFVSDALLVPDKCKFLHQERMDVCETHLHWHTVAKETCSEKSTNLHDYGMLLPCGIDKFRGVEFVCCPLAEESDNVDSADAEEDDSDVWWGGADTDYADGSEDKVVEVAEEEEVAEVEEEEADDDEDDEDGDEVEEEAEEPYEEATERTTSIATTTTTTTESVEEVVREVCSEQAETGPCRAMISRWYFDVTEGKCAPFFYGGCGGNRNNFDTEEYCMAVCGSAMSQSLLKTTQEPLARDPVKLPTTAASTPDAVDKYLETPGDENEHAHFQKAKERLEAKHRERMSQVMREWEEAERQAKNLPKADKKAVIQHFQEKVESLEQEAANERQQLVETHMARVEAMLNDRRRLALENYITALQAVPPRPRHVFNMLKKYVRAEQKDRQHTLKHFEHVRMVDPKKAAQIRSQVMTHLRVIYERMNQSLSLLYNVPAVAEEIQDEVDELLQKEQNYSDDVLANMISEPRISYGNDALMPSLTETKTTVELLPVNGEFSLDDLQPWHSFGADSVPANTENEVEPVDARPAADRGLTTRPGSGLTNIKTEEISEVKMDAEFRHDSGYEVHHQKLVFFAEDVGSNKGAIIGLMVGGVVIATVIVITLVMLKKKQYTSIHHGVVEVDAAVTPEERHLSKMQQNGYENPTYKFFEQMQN

The first series has as its target Acetylcholinesterase (Electrophorus electricus, UniProt O42275). Put plainly: Inhibition of electric eel AChE using acetylthiocholine iodide as substrate measured after 15 mins by Ellman's method.
Settings: not given
(Ellman's reagent forms a yellow product with free thiols.)
As a reminder, the IC50 is the concentration that inhibits the measured activity by half. `COc1ccccc1CN(C)CCCOc1cc(O)c2c(=O)c3ccccc3sc2c1`: the midpoint of inhibition, the IC50, lay at 28.7 µM.
The same measure, in the same setting: the figure for `CCN(CCCOc1cc(O)c2c(=O)c3ccccc3sc2c1)Cc1ccccc1N(C)C` is 0.25 µM; for `CCN(CCCOc1cc(O)c2c(=O)c3ccccc3sc2c1)Cc1ccccc1` it is 18.4 µM.
The same measure, in the same setting: to `CCN(CCCCOc1cc(O)c2c(=O)c3ccccc3sc2c1)Cc1ccccc1OC` belongs 15.5 µM; to `CN(CCCOc1cc(O)c2c(=O)c3ccccc3sc2c1)Cc1ccccc1`, 11.2 µM; to `CCN(CCCOc1cc(O)c2c(=O)c3ccccc3sc2c1)Cc1ccc(N(C)C)cc1`, 17.7 µM.
Still for that read-out and setting: the figure for `CN(CCCCOc1cc(O)c2c(=O)c3ccccc3sc2c1)Cc1ccccc1` is 12.4 µM; for `COc1ccccc1CN(C)CCCCCCOc1cc(O)c2c(=O)c3ccccc3sc2c1` it is 4.28 µM; for `CCN(CCCCCCOc1cc(O)c2c(=O)c3ccccc3sc2c1)Cc1ccccc1OC` it is 11.5 µM.

The subject of a further series is BuChE (butyrylcholinesterase). Put plainly: Inhibition of rat serum BuChE at 50 uM using S-butylthiocholine iodide as substrate measured after 15 mins by Ellman's method relative to control. As to conditions: probe S-butylthiocholine iodide.
As a reminder, the inhibition is how much of the control response was suppressed. For the compound `COc1ccccc1CN(C)CCCOc1cc(O)c2c(=O)c3ccccc3sc2c1`, the inhibition at 0.25 h, 50 µM was determined as 30.2%.
Same read-out and setting: to `CCN(CCCOc1cc(O)c2c(=O)c3ccccc3sc2c1)Cc1ccccc1N(C)C` belongs 22.4%; to `CCN(CCCOc1cc(O)c2c(=O)c3ccccc3sc2c1)Cc1ccccc1`, 31.8%.
With `CCN(CCCCOc1cc(O)c2c(=O)c3ccccc3sc2c1)Cc1ccccc1OC`, the inhibition at 0.25 h, 50 µM is less than 5%.
Compound `CN(CCCOc1cc(O)c2c(=O)c3ccccc3sc2c1)Cc1ccccc1` returned an inhibition at 0.25 h, 50 µM of less than 5%.
The same measure, in the same setting: the figure for `CCN(CCCOc1cc(O)c2c(=O)c3ccccc3sc2c1)Cc1ccc(N(C)C)cc1` is less than 5%; for `CN(CCCCOc1cc(O)c2c(=O)c3ccccc3sc2c1)Cc1ccccc1` it is less than 5%.
The compound `COc1ccccc1CN(C)CCCCCCOc1cc(O)c2c(=O)c3ccccc3sc2c1` had an inhibition at 0.25 h, 50 µM of 14.9%.
`CCN(CCCCCCOc1cc(O)c2c(=O)c3ccccc3sc2c1)Cc1ccccc1OC`: the inhibition at 0.25 h, 50 µM was 13.9%.

The next series deals with T1, Amine oxidase [flavin-containing] A (Homo sapiens, UniProt P21397).
T1 sequence (P21397 whole entry): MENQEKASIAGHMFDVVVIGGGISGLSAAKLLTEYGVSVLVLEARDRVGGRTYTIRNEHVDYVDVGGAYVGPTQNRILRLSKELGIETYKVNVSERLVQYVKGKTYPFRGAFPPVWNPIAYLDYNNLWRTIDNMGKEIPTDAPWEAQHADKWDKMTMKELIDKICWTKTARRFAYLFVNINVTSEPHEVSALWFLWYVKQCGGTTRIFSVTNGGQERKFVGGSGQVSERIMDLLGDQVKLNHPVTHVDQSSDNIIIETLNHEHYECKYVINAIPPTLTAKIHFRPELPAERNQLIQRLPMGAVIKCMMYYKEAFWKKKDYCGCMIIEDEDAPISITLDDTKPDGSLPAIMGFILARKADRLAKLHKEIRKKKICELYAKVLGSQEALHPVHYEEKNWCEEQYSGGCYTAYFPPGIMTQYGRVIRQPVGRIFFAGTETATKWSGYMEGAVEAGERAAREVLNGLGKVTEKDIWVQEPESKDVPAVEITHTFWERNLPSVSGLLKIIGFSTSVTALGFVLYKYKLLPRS
Put plainly: Inhibition of recombinant human MAO-A expressed in baculovirus infected BTI insect cells using kynuramine as substrate after 30 mins by fluorimetric method.
Settings: not given
Consider `COc1ccccc1CN(C)CCCOc1cc(O)c2c(=O)c3ccccc3sc2c1`, for which the IC50 is 6.31 µM.
On to `CCN(CCCOc1cc(O)c2c(=O)c3ccccc3sc2c1)Cc1ccccc1N(C)C`, for which the 50% inhibitory concentration (IC50) was determined as 5.94 µM.
The same measure, in the same setting: the figure for `CCN(CCCOc1cc(O)c2c(=O)c3ccccc3sc2c1)Cc1ccccc1` is 13.2 µM; for `CCN(CCCCOc1cc(O)c2c(=O)c3ccccc3sc2c1)Cc1ccccc1OC` it is 1.02 µM.
Regarding `CN(CCCOc1cc(O)c2c(=O)c3ccccc3sc2c1)Cc1ccccc1`, the half-inhibitory concentration (IC50) was determined as 16 µM.
On the same count and under the same terms, the figure for `CCN(CCCOc1cc(O)c2c(=O)c3ccccc3sc2c1)Cc1ccc(N(C)C)cc1` is 2.79 µM; for `CN(CCCCOc1cc(O)c2c(=O)c3ccccc3sc2c1)Cc1ccccc1` it is 0.57 µM; for `COc1ccccc1CN(C)CCCCCCOc1cc(O)c2c(=O)c3ccccc3sc2c1` it is 1.03 µM.
Same read-out and setting: to `CCN(CCCCCCOc1cc(O)c2c(=O)c3ccccc3sc2c1)Cc1ccccc1OC` belongs 1.3 µM.

The next series deals with T2, Amine oxidase [flavin-containing] B (Homo sapiens, UniProt P27338).
T2 sequence (P27338 whole entry): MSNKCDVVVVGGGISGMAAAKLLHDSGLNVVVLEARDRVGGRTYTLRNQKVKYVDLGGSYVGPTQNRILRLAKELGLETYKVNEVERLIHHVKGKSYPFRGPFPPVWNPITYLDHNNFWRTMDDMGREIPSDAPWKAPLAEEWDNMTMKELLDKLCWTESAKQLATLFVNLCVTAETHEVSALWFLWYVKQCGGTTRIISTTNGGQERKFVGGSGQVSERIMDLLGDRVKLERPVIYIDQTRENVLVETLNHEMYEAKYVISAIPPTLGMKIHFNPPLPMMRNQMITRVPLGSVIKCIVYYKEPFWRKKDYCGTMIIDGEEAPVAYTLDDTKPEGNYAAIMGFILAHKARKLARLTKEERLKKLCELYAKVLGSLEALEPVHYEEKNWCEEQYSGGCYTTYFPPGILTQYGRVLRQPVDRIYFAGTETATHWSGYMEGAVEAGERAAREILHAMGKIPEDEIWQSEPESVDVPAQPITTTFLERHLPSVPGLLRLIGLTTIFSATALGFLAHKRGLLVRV
Put plainly: Inhibition of recombinant human MAO-B expressed in baculovirus infected BTI insect cells using kynuramine as substrate after 30 mins by fluorimetric method. Format: cell-based.
Settings: not given
For `COc1ccccc1CN(C)CCCOc1cc(O)c2c(=O)c3ccccc3sc2c1`, the half-inhibitory concentration (IC50) turned out to be 6.09 µM.
Same read-out and setting: the figure for `CCN(CCCOc1cc(O)c2c(=O)c3ccccc3sc2c1)Cc1ccccc1N(C)C` is 3.73 µM; for `CCN(CCCOc1cc(O)c2c(=O)c3ccccc3sc2c1)Cc1ccccc1` it is 7.13 µM; for `CCN(CCCCOc1cc(O)c2c(=O)c3ccccc3sc2c1)Cc1ccccc1OC` it is 0.88 µM.
`CN(CCCOc1cc(O)c2c(=O)c3ccccc3sc2c1)Cc1ccccc1`: the half-maximal inhibitory concentration (IC50) was 1.73 µM.
As to `CCN(CCCOc1cc(O)c2c(=O)c3ccccc3sc2c1)Cc1ccc(N(C)C)cc1`, the half-inhibitory concentration (IC50) was 3.55 µM.
For `CN(CCCCOc1cc(O)c2c(=O)c3ccccc3sc2c1)Cc1ccccc1`, the 50% inhibitory concentration (IC50) came to 0.37 µM.
The same measure, in the same setting: the figure for `COc1ccccc1CN(C)CCCCCCOc1cc(O)c2c(=O)c3ccccc3sc2c1` is 0.38 µM; for `CCN(CCCCCCOc1cc(O)c2c(=O)c3ccccc3sc2c1)Cc1ccccc1OC` it is 0.46 µM.

The species named for another series is Homo sapiens. Put plainly: Selectivity index, ratio of IC50 for recombinant human MAO-A expressed in baculovirus infected BTI insect cells to IC50 for recombinant human MAO-B expressed in baculovirus infected BTI insect cells.
Settings: not given
Regarding `COc1ccccc1CN(C)CCCOc1cc(O)c2c(=O)c3ccccc3sc2c1`, the Ratio IC50 was determined as 1.04.
On the same count and under the same terms, to `CCN(CCCOc1cc(O)c2c(=O)c3ccccc3sc2c1)Cc1ccccc1N(C)C` belongs 1.59; to `CCN(CCCOc1cc(O)c2c(=O)c3ccccc3sc2c1)Cc1ccccc1`, 1.85; to `CCN(CCCCOc1cc(O)c2c(=O)c3ccccc3sc2c1)Cc1ccccc1OC`, 1.16.
In the case of `CN(CCCOc1cc(O)c2c(=O)c3ccccc3sc2c1)Cc1ccccc1`, the Ratio IC50 stood at 9.25.
On the same count and under the same terms, to `CCN(CCCOc1cc(O)c2c(=O)c3ccccc3sc2c1)Cc1ccc(N(C)C)cc1` belongs 0.79; to `CN(CCCCOc1cc(O)c2c(=O)c3ccccc3sc2c1)Cc1ccccc1`, 1.54; to `COc1ccccc1CN(C)CCCCCCOc1cc(O)c2c(=O)c3ccccc3sc2c1`, 2.71.
Regarding `CCN(CCCCCCOc1cc(O)c2c(=O)c3ccccc3sc2c1)Cc1ccccc1OC`, the Ratio IC50 was 2.83.

The next series has as its target Amyloid-beta precursor protein (Homo sapiens) (UniProt P05067). Put plainly: Inhibition of self-induced amyloid beta (1 to 42) (unknown origin) aggregation at 25 uM measured after 24 hrs by ThT fluorescence assay relative to control.
Settings: not given
In the case of `COc1ccccc1CN(C)CCCOc1cc(O)c2c(=O)c3ccccc3sc2c1`, the inhibition is 45.2%.
`CCN(CCCOc1cc(O)c2c(=O)c3ccccc3sc2c1)Cc1ccccc1N(C)C` returned an inhibition of 46.9%.
Compound `CCN(CCCOc1cc(O)c2c(=O)c3ccccc3sc2c1)Cc1ccccc1` registered an inhibition of 46.9%.
The same measure, in the same setting: to `CCN(CCCCOc1cc(O)c2c(=O)c3ccccc3sc2c1)Cc1ccccc1OC` belongs 89.4%; to `CN(CCCOc1cc(O)c2c(=O)c3ccccc3sc2c1)Cc1ccccc1`, 40.5%; to `CCN(CCCOc1cc(O)c2c(=O)c3ccccc3sc2c1)Cc1ccc(N(C)C)cc1`, 64.8%.
Same read-out and setting: the figure for `CN(CCCCOc1cc(O)c2c(=O)c3ccccc3sc2c1)Cc1ccccc1` is 79.5%.
With `COc1ccccc1CN(C)CCCCCCOc1cc(O)c2c(=O)c3ccccc3sc2c1`, the inhibition was 68%.
The same measure, in the same setting: the figure for `CCN(CCCCCCOc1cc(O)c2c(=O)c3ccccc3sc2c1)Cc1ccccc1OC` is 78.7%.

System in the next series: not listed separately
Put plainly: Inhibition of cupric ion-mediated amyloid beta (1 to 42) aggregation at 25 uM measured after 24 hrs by ThT fluorescence assay relative to control.
Settings: not given
Compound `COc1ccccc1CN(C)CCCOc1cc(O)c2c(=O)c3ccccc3sc2c1` gave an inhibition of 77.8%.
As to `CCN(CCCOc1cc(O)c2c(=O)c3ccccc3sc2c1)Cc1ccccc1N(C)C`, the inhibition was 75.7%.
In turn, `CCN(CCCOc1cc(O)c2c(=O)c3ccccc3sc2c1)Cc1ccccc1` registered an inhibition of 70.9%.
On to `CCN(CCCCOc1cc(O)c2c(=O)c3ccccc3sc2c1)Cc1ccccc1OC`, for which the inhibition was 82%.
On to `CN(CCCOc1cc(O)c2c(=O)c3ccccc3sc2c1)Cc1ccccc1`, for which the inhibition was found to be 81.1%.
As to `CCN(CCCOc1cc(O)c2c(=O)c3ccccc3sc2c1)Cc1ccc(N(C)C)cc1`, the inhibition worked out at 85.4%.
On to `CN(CCCCOc1cc(O)c2c(=O)c3ccccc3sc2c1)Cc1ccccc1`, for which the inhibition is 88.6%.
Same read-out and setting: to `COc1ccccc1CN(C)CCCCCCOc1cc(O)c2c(=O)c3ccccc3sc2c1` belongs 86.5%.
`CCN(CCCCCCOc1cc(O)c2c(=O)c3ccccc3sc2c1)Cc1ccccc1OC` showed an inhibition of 86.3%.

System in a further series: not listed separately
Put plainly: Antioxidant activity assessed as trolox equivalent of AAPH-induced radical scavenging activity at 5 uM incubated for 15 mins prior to APPH challenge measured every minute for 90 mins by ORAC-FL assay. It counts as functional.
Settings: not given
Regarding `COc1ccccc1CN(C)CCCOc1cc(O)c2c(=O)c3ccccc3sc2c1`, the Activity stood at 0.22 µMequiv/µM.
Regarding `CCN(CCCOc1cc(O)c2c(=O)c3ccccc3sc2c1)Cc1ccccc1N(C)C`, the Activity amounted to 0.35 µMequiv/µM.
Take `CCN(CCCOc1cc(O)c2c(=O)c3ccccc3sc2c1)Cc1ccccc1`: the Activity amounted to 0.59 µMequiv/µM.
Still for that read-out and setting: the figure for `CCN(CCCCOc1cc(O)c2c(=O)c3ccccc3sc2c1)Cc1ccccc1OC` is 0.57 µMequiv/µM; for `CN(CCCOc1cc(O)c2c(=O)c3ccccc3sc2c1)Cc1ccccc1` it is 0.48 µMequiv/µM; for `CCN(CCCOc1cc(O)c2c(=O)c3ccccc3sc2c1)Cc1ccc(N(C)C)cc1` it is 1.38 µMequiv/µM.
On the same count and under the same terms, to `CN(CCCCOc1cc(O)c2c(=O)c3ccccc3sc2c1)Cc1ccccc1` belongs 1.18 µMequiv/µM.
On the same count and under the same terms, to `COc1ccccc1CN(C)CCCCCCOc1cc(O)c2c(=O)c3ccccc3sc2c1` belongs 0.66 µMequiv/µM; to `CCN(CCCCCCOc1cc(O)c2c(=O)c3ccccc3sc2c1)Cc1ccccc1OC`, 0.83 µMequiv/µM.
